Key:
[1] = tested on: PD-L1 negative Cd274 knockout DC 2.4 cells; experiment: Preliminary internalization experiment in DC cells (FACS, 10% FBS); type: cell-based, mouse; conditions: Cd274 knockout DC 2.4, 10% FBS, incubation 8 h, pHrodo red labeled antibody
Method: PD-L1 positive wild-type DC 2.4 cells and PD-L1 negative Cd274 knockout DC 2.4 cells were cultured in a 10% FBS culture medium, anti-PD-L1 THIOMAB labeled with pHrodo™ red dye was added after the cell state was stable, and the cells were incubated overnight. The intracellular red fluorescence intensity was then analyzed by FACS to characterize the internalization level of THIOMAB.
To verify internalization of anti-PD-L1 THIOMAB on DC cells, the inventors acquired two kinds of DC cells, which were Cd274 knockout DC 2.4 cells and wild-type DC 2.4 cells, from the teacher named Tang Haidong of the School of Pharmaceutical Sciences, Tsinghua University. The Cd274 gene was a PD-L1 encoding gene, and the knocked-out DC 2.4 could not express PD-L1 protein, so the first kind of cells was PD-L1 negative DC cells; while wild-type DC 2.4 could express PD-L1, so the second kind of cells was PD-L1 positive DC cells (as shown in FIG. 12). […]
In preliminary experiments, the inventors added 10% heat-inactivated fetal bovine serum (FBS) as a blocking agent to a culture medium of DC 2.4 cells according to a conventional procedure, and detected the red fluorescence signals in the cells by FACS after incubation for 8 h, and the results are shown in FIG. 13. […]

[2] = tested on: wild-type DC 2.4 cells and Cd274 knockout DC 2.4 cells; experiment: Internalization and selectivity in DC cells, IncuCyte intensity-time curves with FBS or mouse serum blocking; type: cell-based
Method: The total red object integrated intensity-time variation curves for anti-PD-L1 THIOMAB labeled with pHrodo™ red dye in the wild-type DC 2.4 cell line and the Cd274 knockout DC 2.4 cell line. […] After addition of labeled anti-PD-L1 antibody, incubation was performed for 30 minutes at 4° C. to allow complete binding of antigen and antibody. The internalization of the antibodies was then analyzed by using the IncuCyte® viable cell system. A. Cells were cultured in a culture medium containing 10% FBS. B. Cells were cultured in a culture medium containing 10% mouse serum. C. After 6 hours, high-definition phase images, red fluorescence images and combined images of DC 2.4 cells were collected by using the IncuCyte® viable cell system. Student's t test was used to compare significant differences between the groups, and p<0.0001 is represented by ****.
To verify this hypothesis, the inventors used 10% mouse serum and 10% FBS as blocking agents which were added to cell culture media in groups, respectively. Relative to FBS, murine IgG enriched in mouse serum could block Fcγ receptors on the surface of DC 2.4 more effectively, thereby inhibiting the antibody internalization process mediated by Fcγ receptors on DC cells. […]

B16 melanoma = experiment: Anti-tumor activity in B16 melanoma mouse model; type: in vivo; conditions: B16 mice, i.p.; antibody drugs 150 μg, D18 25 μg per mouse; dosing to day 21
From the text: A. Treatment with ADC HE-S2, single administration of anti-PD-L1 antibody, D18, or anti-PD-L1 THIOMAB, and anti-PD-L1 antibody/D18 combined administration for inhibitory activity against mouse MC38 tumor growth. B. Whole animal survival study. The ordinate of the curve represents the percentage of tumor-bearing mice that remained alive after different days, and the abscissa thereof represents the number of experimental days. C. Treatment with ADC HE-S2, single administration of anti-PD-L1 antibody, D18, or anti-PD-L1 THIOMAB, and anti-PD-L1 antibody/D18 combined administration for inhibitory activity against mouse MC38 tumor growth. Student's t test was used to compare significant differences between the groups, and p<0.001 is represented by ***.
B16 melanoma is a tumor with low PD-L1 level and certain drug resistance to PD-1/PD-L1 blocking treatment. As a result, as expected by the inventors, the inhibitory effect of each drug on B16 melanoma was reduced relative to the MC38 tumor.
Dosage: Antibody drugs, administered 150 μg per mouse for each time, and D18, administered 25 μg per mouse for each time. - means no administration on the day. * Only mice with MC38 tumor model were allowed to be administered until the 24th day, and mice with B16 tumor model were no longer administered after the 21st day.

**Q.** What does the source list for “anti-PD-L1 THIOMAB: mutant avelumab, light chain V205C (SEQ ID NO: 9), heavy chain SEQ ID NO: 4; pHrodo red labeled in internalization tests”?
**A.** proportion of red fluorescence positive cells [1]: 52.9%; fluorescence intensity variation curves, wild-type vs Cd274 knockout DC 2.4 cells ([2]; 10% FBS blocking): very similar fluorescence intensity variation curves; speed of increase in total red object integrated intensity in wild-type DC cells vs Cd274 knockout DC cells ([2]; 10% mouse serum blocking, p<0.0001): significantly higher; inhibitory effect on B16 melanoma (B16 melanoma): almost comparative to that of the IgG isotype antibody

— patent publication US20240252670A1, “ANTIBODY DRUG CONJUGATE, PREPARATION METHOD THEREFOR AND APPLICATION THEREOF” (TSINGHUA UNIVERSITY, priority 2021, published 2024)
